What all share (experiment): KinomeScan profiling
Common to all, as to type: binding

The target of experiment [1] is T1, CSF1R-autoinhibited (Homo sapiens, UniProt P07333).
T1 sequence (P07333 539-972 limits assumed): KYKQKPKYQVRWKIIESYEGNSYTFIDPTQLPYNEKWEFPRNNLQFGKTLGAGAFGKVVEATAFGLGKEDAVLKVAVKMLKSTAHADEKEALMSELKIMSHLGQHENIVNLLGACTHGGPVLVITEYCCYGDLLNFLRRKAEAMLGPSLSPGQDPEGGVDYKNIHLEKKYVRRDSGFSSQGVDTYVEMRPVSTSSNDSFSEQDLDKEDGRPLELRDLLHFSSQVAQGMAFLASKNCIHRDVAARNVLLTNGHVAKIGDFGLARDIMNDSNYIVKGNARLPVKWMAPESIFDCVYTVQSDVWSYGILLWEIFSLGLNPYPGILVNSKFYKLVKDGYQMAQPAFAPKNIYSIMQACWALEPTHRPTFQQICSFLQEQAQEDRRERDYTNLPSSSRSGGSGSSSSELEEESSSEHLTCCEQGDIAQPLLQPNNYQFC
As to conditions: read-out: % control. The method, boiled down:
(§1)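 Selectivity was assessed by binding competition at 1 μM against 468 kinases. Values below 35% of control define an interaction.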

Experiment [2] has as its target TIE1 (Homo sapiens, UniProt P35590). Particulars: TIE1, 1 μM; read-out: % control. In a few lines: as §1
Experiment [3] has as its target T2, PIK3CA(E545K) (Homo sapiens, UniProt P42336, E545K).
T2 construct: purchased KinomeScan® (panel service)
Particulars: read-out: % control. In a few lines:
as §1

Experiment [4] addresses LIMK2 (Homo sapiens, UniProt P53671). Particulars: LIMK2, 1 μM; read-out: % control. The method, boiled down: as §1
Experiment [5] addresses T3, CHEK1 (Homo sapiens, UniProt O14757).
T3 sequence (O14757 1-476): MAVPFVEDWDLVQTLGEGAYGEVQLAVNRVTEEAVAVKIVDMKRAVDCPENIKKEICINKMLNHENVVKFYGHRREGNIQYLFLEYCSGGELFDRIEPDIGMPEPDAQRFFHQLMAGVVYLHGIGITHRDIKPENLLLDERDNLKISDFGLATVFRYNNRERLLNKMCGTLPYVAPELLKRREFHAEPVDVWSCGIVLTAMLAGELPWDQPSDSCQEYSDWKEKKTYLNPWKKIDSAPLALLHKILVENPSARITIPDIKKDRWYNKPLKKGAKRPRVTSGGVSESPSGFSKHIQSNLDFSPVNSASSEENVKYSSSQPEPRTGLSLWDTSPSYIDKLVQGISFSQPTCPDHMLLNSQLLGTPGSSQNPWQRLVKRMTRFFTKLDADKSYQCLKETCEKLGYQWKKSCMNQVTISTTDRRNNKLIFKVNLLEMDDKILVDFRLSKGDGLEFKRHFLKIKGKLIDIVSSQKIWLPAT
As to conditions: CHEK1, 1 μM; read-out: % control. In a few lines:
as §1

Experiment [6] addresses NIK (Homo sapiens, UniProt Q99558). As to conditions: read-out: % control. The method, boiled down:
as §1

Experiment [7] has as its target T4, ACVRL1 (Homo sapiens, UniProt P37023).
T4 construct: purchased KinomeScan®
As to conditions: ACVRL1, 1 μM; read-out: % control. The method, boiled down:
as §1

Experiment [8] addresses T5, MYO3B (Homo sapiens, UniProt Q8WXR4).
T5 sequence (Q8WXR4 1-1341): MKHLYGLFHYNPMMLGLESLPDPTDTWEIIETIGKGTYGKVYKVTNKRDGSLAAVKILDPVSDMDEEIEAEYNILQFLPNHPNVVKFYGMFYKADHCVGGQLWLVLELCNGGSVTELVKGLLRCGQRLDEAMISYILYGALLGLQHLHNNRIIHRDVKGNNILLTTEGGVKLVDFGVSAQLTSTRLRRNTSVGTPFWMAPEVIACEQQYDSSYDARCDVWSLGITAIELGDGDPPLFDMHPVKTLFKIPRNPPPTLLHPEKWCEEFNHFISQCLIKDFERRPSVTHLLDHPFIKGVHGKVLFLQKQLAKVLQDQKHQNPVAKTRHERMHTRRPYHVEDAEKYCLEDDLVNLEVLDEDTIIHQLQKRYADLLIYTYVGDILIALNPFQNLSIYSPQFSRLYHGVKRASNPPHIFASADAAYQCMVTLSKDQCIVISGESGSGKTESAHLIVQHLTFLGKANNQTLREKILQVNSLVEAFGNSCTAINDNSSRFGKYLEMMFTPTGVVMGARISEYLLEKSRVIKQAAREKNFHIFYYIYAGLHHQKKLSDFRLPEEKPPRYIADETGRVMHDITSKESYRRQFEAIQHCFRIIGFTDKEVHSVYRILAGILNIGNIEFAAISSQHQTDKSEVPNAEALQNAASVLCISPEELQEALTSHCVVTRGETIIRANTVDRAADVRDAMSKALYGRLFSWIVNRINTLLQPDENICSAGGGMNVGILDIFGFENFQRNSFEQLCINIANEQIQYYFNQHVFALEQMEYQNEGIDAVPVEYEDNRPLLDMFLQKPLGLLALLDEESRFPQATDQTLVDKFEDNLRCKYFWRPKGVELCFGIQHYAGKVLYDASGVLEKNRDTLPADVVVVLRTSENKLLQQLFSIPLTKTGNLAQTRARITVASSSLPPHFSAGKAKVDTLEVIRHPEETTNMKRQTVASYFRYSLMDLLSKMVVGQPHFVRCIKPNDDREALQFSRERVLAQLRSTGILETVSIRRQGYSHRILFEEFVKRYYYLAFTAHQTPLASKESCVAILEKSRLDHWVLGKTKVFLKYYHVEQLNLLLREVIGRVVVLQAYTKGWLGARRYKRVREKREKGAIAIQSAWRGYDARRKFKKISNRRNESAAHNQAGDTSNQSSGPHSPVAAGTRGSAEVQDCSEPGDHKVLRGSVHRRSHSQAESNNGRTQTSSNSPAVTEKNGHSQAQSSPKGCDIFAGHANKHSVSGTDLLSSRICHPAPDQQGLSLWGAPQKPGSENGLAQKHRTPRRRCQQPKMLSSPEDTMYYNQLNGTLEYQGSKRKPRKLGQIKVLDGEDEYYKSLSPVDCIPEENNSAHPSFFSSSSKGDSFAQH
Particulars: read-out: % control. In a few lines: as §1

TIE1, sequence (P35590 22-1138): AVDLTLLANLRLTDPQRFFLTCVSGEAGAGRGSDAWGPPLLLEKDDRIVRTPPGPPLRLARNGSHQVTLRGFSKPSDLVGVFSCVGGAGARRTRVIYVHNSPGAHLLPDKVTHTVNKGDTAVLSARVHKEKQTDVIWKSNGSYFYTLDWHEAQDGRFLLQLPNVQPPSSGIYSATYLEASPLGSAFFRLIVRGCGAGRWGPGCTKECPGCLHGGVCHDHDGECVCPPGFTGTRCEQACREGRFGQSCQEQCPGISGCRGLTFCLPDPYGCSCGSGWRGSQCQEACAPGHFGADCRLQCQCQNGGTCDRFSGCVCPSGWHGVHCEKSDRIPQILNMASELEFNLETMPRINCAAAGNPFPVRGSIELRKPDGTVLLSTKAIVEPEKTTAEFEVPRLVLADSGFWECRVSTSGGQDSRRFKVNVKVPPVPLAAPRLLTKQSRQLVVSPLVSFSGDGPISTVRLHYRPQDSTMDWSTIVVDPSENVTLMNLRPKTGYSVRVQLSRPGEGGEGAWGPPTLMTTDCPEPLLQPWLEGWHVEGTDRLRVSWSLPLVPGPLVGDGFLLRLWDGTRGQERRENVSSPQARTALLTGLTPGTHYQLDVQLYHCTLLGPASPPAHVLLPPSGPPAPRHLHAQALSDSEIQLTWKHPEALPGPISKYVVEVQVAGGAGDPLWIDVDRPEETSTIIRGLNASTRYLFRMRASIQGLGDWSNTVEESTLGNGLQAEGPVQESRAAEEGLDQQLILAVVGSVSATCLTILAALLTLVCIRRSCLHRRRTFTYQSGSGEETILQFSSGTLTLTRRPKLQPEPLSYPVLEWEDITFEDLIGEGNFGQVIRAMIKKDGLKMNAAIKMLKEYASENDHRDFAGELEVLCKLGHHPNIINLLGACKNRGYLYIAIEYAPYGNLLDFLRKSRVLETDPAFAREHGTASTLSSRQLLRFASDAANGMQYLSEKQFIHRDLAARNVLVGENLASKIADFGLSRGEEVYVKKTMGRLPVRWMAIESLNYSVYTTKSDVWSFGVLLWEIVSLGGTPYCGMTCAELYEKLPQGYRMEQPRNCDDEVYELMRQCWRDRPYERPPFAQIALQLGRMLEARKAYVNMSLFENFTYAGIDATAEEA
NIK, sequence (Q99558 whole entry): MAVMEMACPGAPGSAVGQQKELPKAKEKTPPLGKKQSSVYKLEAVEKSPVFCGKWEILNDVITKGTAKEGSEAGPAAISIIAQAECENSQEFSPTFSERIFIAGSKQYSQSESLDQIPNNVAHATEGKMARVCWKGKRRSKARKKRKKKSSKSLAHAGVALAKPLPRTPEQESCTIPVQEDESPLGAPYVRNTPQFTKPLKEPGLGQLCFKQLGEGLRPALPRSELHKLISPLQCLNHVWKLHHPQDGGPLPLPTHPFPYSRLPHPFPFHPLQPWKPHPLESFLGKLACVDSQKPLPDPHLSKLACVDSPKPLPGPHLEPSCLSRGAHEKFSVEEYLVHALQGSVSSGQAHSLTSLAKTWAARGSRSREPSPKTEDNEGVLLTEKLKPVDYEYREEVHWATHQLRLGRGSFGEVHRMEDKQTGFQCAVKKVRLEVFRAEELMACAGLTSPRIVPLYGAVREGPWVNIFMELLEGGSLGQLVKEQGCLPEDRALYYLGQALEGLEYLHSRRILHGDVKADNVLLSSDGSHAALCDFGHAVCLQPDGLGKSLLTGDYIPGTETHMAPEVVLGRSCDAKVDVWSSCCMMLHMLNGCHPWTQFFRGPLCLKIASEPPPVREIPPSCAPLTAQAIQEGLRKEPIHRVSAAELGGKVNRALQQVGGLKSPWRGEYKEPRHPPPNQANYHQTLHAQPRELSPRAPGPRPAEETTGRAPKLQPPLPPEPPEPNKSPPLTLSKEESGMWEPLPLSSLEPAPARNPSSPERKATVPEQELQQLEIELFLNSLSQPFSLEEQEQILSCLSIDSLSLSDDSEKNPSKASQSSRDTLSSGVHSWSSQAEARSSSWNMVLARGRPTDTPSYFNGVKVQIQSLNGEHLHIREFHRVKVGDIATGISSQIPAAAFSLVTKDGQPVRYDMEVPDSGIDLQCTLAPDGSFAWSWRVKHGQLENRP
T4 sequence (P37023 22-503): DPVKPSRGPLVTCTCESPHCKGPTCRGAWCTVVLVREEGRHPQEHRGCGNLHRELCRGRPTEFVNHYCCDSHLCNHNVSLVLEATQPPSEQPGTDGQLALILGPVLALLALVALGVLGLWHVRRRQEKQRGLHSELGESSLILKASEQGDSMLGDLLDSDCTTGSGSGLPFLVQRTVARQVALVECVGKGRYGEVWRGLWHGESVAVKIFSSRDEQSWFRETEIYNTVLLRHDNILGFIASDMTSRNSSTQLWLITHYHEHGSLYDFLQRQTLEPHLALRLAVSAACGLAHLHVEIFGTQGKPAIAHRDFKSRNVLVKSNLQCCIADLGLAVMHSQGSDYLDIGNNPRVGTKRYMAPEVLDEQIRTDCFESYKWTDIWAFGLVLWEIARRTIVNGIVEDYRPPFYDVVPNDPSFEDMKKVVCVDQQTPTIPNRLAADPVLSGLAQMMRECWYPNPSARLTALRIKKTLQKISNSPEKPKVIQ
T2 sequence (P42336 whole entry E545K): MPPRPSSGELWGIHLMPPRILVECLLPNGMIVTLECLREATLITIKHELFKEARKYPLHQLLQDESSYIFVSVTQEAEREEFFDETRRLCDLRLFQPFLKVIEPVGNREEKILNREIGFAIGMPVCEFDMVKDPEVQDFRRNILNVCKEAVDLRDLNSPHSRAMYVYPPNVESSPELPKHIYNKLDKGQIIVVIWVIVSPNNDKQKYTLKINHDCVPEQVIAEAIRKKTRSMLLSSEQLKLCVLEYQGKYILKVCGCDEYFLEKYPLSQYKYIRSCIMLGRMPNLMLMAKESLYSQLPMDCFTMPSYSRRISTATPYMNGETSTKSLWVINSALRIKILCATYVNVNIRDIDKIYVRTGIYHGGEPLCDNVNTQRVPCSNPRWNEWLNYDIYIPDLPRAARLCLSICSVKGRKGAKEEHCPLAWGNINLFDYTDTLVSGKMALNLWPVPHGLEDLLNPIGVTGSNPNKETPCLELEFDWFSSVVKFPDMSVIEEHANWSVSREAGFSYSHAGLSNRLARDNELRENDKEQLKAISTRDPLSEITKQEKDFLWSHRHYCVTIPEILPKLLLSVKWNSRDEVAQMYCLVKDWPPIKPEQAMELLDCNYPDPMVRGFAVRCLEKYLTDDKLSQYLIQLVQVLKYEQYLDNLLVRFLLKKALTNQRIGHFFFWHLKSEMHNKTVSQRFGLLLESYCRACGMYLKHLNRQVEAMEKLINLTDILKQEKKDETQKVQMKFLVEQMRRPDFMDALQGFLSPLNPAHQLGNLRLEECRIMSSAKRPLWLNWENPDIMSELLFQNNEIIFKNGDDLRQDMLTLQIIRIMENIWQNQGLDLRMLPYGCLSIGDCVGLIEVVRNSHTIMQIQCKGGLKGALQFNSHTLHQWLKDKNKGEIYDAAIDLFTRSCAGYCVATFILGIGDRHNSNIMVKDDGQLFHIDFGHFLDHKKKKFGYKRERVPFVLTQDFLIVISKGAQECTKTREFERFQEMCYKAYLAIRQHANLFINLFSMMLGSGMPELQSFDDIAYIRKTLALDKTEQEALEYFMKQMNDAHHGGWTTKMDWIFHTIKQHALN
LIMK2, sequence (P53671 whole entry): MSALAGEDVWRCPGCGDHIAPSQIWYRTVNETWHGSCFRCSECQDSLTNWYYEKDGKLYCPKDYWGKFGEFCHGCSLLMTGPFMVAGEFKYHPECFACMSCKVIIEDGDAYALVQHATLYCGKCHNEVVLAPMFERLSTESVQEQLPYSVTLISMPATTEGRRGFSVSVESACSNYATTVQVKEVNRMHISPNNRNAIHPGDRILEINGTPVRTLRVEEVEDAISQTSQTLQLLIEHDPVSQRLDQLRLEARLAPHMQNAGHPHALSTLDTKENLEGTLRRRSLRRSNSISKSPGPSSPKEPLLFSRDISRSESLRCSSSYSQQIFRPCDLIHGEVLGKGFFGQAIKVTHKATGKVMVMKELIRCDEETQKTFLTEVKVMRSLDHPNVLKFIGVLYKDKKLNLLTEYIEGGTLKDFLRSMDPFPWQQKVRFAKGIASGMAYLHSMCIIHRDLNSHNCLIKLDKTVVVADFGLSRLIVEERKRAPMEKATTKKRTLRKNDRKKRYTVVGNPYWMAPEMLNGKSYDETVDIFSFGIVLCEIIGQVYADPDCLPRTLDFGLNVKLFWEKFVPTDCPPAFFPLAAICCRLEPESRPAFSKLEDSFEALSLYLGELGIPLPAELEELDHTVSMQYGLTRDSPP

As for `CNc1c(-c2ccc(C(=O)N3CCC(N4CCOCC4)CC3)cc2)cnc2[nH]cc(Cl)c12` [Compound 96, (4-(3-chloro-4-(methylamino)-1H-pyrrolo[2,3-b]pyridin-5-yl)phenyl)(4-morpholinopiperidin-1-yl)methanone], the remaining binding at 1 µM in experiment [1] was found to be 49%; in experiment [2], 93%; in experiment [3] it was 31%; in experiment [4], 100%; in experiment [5] it was 84%; in experiment [6] it was 13%. The remaining binding at 1 µM worked out at 100% in experiment [7] and 73% in experiment [8].
Turning to `O=C(c1ccc(-c2cnc3[nH]cc(Cl)c3c2NC2CCCC2)cc1)N1CCC(N2CCOCC2)CC1` [Compound 101, (4-(3-chloro-4-(cyclopentylamino)-1H-pyrrolo[2,3-b]pyridin-5-yl)phenyl)(4-morpholinopiperidin-1-yl)methanone], the remaining binding at 1 µM in experiment [1] is 3.2%; in experiment [2], 92%; in experiment [3], 79%; in experiment [4], 99%; in experiment [5] it was 83%; in experiment [6], 88%. In addition, the remaining binding at 1 µM stood at 100% in experiment [7] and 93% in experiment [8].
Take `CNc1c(-c2cnn([C@H]3CCN(C(C)=O)C[C@@H]3F)c2)cnc2[nH]cc(Cl)c12` [Compound 77, 1-((3S,4S)-4-(4-(3-chloro-4-(methylamino)-1H-pyrrolo[2,3-b]pyridin-5-yl)-1H-pyrazol-1-yl)-3-fluoropiperidin-1-yl)ethan-1-one]: the remaining binding at 1 µM is 30% in experiment [1]; 97% in experiment [2]; 18% in experiment [3]; 97% in experiment [4]; 89% in experiment [5]; 55% in experiment [6]. For the same molecule, the remaining binding at 1 µM in experiment [7] turned out to be 100%; in experiment [8] it was 96%.
